Test results from ChEMBL document CHEMBL4665887, “Identification, Structure-Activity Relationships of Marine-Derived Indolocarbazoles, and a Dual PKCθ/δ Inhibitor with Potent Antipancreatic Cancer Efficacy” (J Med Chem, 2020).
Active and inactive are the calls of the source. The calls are words filed in the database; no cut-off is given here.

Experiments:
[1] = target: Protein kinase C alpha type (Homo sapiens) (UniProt P17252); experiment: Inhibition of PKCalpha phosphorylation in human BXPC-3 cells at 1 uM incubated for 4 hrs by Western blot analysis; assay type: cell-based
BXPC-3 [2] = experiment: Antitumor activity against patient-derived pancreatic cancer cells xenografted in BALB/c mouse model of patient-derived xenograft assessed as increase in cleaved caspase-3 levels at 6 mg/kg, iv dosed once every 2 days for 18 days by Western blot analysis; assay type: functional, organism-based; settings: Homo sapiens, time 18.0 day
[3] = target: Protein kinase C delta type (Homo sapiens, UniProt Q05655); experiment: Inhibition of PKCdelta phosphorylation at T505 residue in human BXPC-3 cells at 1 uM incubated for 4 hrs by Western blot analysis; assay type: cell-based
BXPC-3 [4] = experiment: Induction of apoptosis in human BXPC-3 cells assessed as increase in cleaved PARP level at 0.25 uM incubated for 30 mins by Western blot analysis; assay type: functional, cell-based
[5] = target: PKC alpha and beta-2 (Homo sapiens) (UniProt P17252+P05771); experiment: Inhibition of PKCalpha/beta II phosphorylation at T638/T641 residue in human BXPC-3 cells at 1 uM incubated for 4 hrs by Western blot analysis; assay type: cell-based
Chain of PKC alpha and beta-2 (Homo sapiens) (P05771 whole entry, looked up): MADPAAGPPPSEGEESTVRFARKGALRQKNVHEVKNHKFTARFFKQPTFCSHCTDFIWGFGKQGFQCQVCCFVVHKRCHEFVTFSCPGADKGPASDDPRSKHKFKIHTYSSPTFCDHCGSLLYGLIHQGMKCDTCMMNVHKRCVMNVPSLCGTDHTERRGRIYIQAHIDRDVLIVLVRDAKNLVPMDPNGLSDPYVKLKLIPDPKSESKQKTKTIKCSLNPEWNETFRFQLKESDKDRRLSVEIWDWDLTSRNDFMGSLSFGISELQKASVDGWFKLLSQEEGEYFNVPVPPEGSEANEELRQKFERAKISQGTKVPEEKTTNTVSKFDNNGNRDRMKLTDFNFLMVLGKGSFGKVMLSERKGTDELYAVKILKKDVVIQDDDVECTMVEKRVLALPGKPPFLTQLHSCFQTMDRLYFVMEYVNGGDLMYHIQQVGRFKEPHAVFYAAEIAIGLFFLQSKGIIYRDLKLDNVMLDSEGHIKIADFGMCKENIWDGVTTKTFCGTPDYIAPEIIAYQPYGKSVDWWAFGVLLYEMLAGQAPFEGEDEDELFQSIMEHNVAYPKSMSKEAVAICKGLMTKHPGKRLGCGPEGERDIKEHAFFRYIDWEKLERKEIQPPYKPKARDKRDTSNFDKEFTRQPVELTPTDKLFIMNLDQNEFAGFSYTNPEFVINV

[6] = target: NF-kappa-B inhibitor alpha (Homo sapiens) (UniProt P25963); experiment: Inhibition of IkappaB-alpha phosphorylation in human BXPC-3 cells at 0.5 uM measured within 1 hr by Western blot analysis; assay type: cell-based; settings: time hrs <=1
Chain of NF-kappa-B inhibitor alpha (Homo sapiens) (P25963 whole entry): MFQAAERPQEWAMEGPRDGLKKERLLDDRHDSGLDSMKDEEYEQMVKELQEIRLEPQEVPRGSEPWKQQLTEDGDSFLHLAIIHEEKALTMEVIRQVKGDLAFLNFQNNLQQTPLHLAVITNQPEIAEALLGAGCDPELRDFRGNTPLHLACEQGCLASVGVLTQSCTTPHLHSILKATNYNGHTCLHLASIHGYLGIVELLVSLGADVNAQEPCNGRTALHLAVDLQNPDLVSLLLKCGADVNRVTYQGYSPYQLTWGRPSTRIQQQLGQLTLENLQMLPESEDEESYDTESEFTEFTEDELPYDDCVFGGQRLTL

BXPC-3 [7] = experiment: Reduction in Bcl-XL protein expression in human BXPC-3 cells incubated for 24 hrs by Western blot analysis; assay type: functional, cell-based
BXPC-3 [8] = experiment: Antitumor activity against patient-derived pancreatic cancer cells xenografted in BALB/c mouse model of patient-derived xenograft assessed as increased numbers of necrotic cells at 6 mg/kg, iv dosed once every 2 days for 18 days by H and E staining based analysis relative to control; assay type: functional, organism-based; settings: Homo sapiens, time 18.0 day
[9] = target: Protein kinase C zeta type (Homo sapiens) (UniProt Q05513); experiment: Inhibition of PKCzeta phosphorylation in human BXPC-3 cells at 1 uM incubated for 4 hrs by Western blot analysis; assay type: cell-based
Chain of Protein kinase C zeta type (Homo sapiens) (Q05513 whole entry): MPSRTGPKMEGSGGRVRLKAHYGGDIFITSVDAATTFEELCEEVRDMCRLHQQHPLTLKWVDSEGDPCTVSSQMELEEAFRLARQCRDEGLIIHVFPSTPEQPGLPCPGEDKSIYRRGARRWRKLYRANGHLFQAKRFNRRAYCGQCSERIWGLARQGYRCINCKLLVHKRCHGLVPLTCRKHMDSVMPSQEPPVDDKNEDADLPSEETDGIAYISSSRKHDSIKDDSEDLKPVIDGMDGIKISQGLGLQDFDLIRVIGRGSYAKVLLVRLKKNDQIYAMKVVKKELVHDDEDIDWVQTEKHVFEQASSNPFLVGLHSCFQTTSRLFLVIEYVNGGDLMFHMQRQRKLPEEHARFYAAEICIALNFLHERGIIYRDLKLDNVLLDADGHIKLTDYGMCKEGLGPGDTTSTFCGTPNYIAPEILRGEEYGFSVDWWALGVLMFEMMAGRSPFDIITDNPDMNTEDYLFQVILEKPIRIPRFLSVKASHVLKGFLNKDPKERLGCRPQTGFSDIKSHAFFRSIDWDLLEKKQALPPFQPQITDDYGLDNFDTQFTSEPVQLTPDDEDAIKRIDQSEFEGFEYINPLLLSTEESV

[10] = target: Protein kinase C iota type/zeta type (Homo sapiens) (UniProt P41743+Q05513); experiment: Inhibition of PKCzeta/lambda phosphorylation at T410/T403 residue in human BXPC-3 cells at 1 uM incubated for 4 hrs by Western blot analysis; assay type: cell-based
Chain of Protein kinase C iota type/zeta type (Homo sapiens) (P41743 whole entry, looked up): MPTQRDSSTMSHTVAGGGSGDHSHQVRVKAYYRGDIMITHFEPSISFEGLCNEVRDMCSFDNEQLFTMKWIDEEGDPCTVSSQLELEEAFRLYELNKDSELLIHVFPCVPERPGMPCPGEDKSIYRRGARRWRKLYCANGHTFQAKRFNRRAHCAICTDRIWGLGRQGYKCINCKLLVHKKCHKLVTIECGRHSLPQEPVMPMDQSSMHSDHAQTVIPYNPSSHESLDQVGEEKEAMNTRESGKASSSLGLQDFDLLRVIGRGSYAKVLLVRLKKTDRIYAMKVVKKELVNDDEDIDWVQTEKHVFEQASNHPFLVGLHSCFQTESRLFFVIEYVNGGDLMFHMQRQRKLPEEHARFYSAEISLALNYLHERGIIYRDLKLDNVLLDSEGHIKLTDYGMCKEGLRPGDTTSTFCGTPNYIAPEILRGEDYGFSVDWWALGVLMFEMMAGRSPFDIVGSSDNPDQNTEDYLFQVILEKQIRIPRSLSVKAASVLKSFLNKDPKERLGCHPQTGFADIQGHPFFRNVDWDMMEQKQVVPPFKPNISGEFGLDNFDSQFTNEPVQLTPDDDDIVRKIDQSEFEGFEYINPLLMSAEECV
Chain of Protein kinase C iota type/zeta type (Homo sapiens) (Q05513 whole entry, looked up): as the sequence (Q05513 whole entry) above

[11] = target: Protein kinase C beta type (Homo sapiens) (UniProt P05771); experiment: Inhibition of PKCbeta phosphorylation at S660 residue in human BXPC-3 cells at 1 uM incubated for 4 hrs by Western blot analysis; assay type: cell-based
Chain of Protein kinase C beta type (Homo sapiens) (P05771 2-671 limits assumed): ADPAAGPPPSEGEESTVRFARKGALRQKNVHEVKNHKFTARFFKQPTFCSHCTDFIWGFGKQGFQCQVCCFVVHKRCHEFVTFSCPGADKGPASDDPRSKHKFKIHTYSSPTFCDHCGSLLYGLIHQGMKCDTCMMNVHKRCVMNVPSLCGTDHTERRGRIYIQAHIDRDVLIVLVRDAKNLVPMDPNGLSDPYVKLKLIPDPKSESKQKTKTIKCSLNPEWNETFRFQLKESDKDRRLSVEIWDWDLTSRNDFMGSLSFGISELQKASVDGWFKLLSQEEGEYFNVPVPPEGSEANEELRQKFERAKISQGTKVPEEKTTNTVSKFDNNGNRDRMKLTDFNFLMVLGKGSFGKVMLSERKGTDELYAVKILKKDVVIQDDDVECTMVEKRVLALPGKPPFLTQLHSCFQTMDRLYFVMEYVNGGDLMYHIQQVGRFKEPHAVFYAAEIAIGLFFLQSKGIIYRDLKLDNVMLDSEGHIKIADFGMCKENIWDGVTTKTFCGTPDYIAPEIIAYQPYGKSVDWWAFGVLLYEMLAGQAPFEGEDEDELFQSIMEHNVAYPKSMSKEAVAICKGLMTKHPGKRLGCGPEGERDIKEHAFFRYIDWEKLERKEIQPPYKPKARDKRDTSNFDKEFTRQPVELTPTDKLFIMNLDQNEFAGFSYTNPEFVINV

BXPC-3 [12] = experiment: Induction of apoptosis in human BXPC-3 cells assessed as increase in cleaved caspase-7 level at 0.25 uM incubated for 30 mins by Western blot analysis; assay type: functional, cell-based
BXPC-3 [13] = experiment: Reduction in XIAP protein expression in human BXPC-3 cells incubated for 24 hrs by Western blot analysis; assay type: functional, cell-based
BXPC-3 [14] = experiment: Induction of apoptosis in human BXPC-3 cells assessed as increase in cleaved caspase-3 level at 0.25 uM incubated for 30 mins by Western blot analysis; assay type: functional, cell-based
BXPC-3 [15] = experiment: Reduction in Bcl-2 protein expression in human BXPC-3 cells incubated for 24 hrs by Western blot analysis; assay type: functional, cell-based
BXPC-3 [16] = experiment: Antitumor activity against patient-derived pancreatic cancer cells xenografted in BALB/c mouse model of patient-derived xenograft assessed as increase in cleaved caspase- levels at 6 mg/kg, iv dosed once every 2 days for 18 days by Western blot analysis; assay type: functional, organism-based; settings: Homo sapiens, time 18.0 day
BXPC-3 [17] = experiment: Induction of apoptosis in human BXPC-3 cells assessed as increase in cleaved caspase-9 level at 0.25 uM incubated for 30 mins by Western blot analysis; assay type: functional, cell-based
[18] = target: Transcription factor p65 (Homo sapiens) (UniProt Q04206); experiment: Inhibition of p65 phosphorylation in human BXPC-3 cells at 0.5 uM measured within 1 hr by Western blot analysis; assay type: cell-based; settings: time hrs <=1
BXPC-3 [19] = experiment: Antitumor activity against patient-derived pancreatic cancer cells xenografted in BALB/c mouse model of patient-derived xenograft assessed as reduction in p-PKCdelta protein levels at 6 mg/kg, iv dosed once every 2 days for 18 days by Western blot analysis; assay type: functional, organism-based; settings: Homo sapiens, time 18.0 day
[20] = target: Inhibitor of nuclear factor kappa-B kinase subunit alpha (Homo sapiens) (UniProt O15111); experiment: Inhibition of IKKalpha phosphorylation in human BXPC-3 cells at 0.5 uM measured within 1 hr by Western blot analysis; assay type: cell-based; settings: time hrs <=1
[21] = target: Protein kinase C theta type (Homo sapiens, UniProt Q04759); experiment: Inhibition of PKCtheta phosphorylation at T538 residue in human BXPC-3 cells at 0.25 uM incubated for 4 hrs by Western blot analysis; assay type: cell-based
[22] = target: Protein kinase C iota type (Homo sapiens) (UniProt P41743); experiment: Inhibition of PKClambda phosphorylation in human BXPC-3 cells at 1 uM incubated for 4 hrs by Western blot analysis; assay type: cell-based
Chain of Protein kinase C iota type (Homo sapiens) (P41743 whole entry): as the sequence (P41743 whole entry, looked up) above

[23] = target: Protein kinase C beta type (Homo sapiens) (UniProt P05771); experiment: Inhibition of PKC(pan)/beta II phosphorylation at S660 residue in human BXPC-3 cells at 1 uM incubated for 4 hrs by Western blot analysis; assay type: cell-based
BXPC-3 [24] = experiment: Reduction in Mcl1 protein expression in human BXPC-3 cells incubated for 24 hrs by Western blot analysis; assay type: functional, cell-based
[25] = target: Inhibitor of nuclear factor kappa-B kinase subunit beta (Homo sapiens) (UniProt O14920); experiment: Inhibition of IKKbeta phosphorylation in human BXPC-3 cells at 0.5 uM measured within 1 hr by Western blot analysis; assay type: cell-based; settings: time hrs <=1
Chain of Inhibitor of nuclear factor kappa-B kinase subunit beta (Homo sapiens) (O14920 whole entry): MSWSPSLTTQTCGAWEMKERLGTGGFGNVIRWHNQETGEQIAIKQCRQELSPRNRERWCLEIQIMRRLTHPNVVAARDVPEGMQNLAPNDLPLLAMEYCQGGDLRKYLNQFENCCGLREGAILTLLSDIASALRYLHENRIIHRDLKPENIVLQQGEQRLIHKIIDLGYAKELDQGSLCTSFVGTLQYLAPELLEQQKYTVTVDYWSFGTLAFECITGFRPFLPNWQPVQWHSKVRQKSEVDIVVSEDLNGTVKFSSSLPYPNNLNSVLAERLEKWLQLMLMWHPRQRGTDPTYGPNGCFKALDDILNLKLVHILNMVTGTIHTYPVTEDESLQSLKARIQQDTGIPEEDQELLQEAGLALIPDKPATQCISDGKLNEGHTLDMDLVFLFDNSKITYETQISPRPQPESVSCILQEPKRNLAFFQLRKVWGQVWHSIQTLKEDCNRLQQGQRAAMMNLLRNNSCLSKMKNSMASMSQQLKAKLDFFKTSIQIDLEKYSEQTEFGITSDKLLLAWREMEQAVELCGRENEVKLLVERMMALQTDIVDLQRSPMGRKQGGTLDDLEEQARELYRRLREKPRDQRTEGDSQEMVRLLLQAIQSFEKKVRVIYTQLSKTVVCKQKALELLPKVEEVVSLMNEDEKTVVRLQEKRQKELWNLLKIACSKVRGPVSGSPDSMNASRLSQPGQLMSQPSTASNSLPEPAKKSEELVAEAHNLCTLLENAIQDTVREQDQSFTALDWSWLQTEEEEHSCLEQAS

BXPC-3 [26] = experiment: Induction of apoptosis in human BXPC-3 cells incubated for 24 hrs by PI and annexin V-FITC staining based flow cytometry; assay type: functional, cell-based
[27] = Toxicity in BALB/c mouse model of patient-derived xenograft implanted with patient-derived pancreatic cancer cells assessed as effect on body weight at 30 mg/kg, ip QD for 18 days relative to control; assay type: organism-based; settings: in vivo, 432 h, time 18 day
[28] = Toxicity in BALB/c mouse model of patient-derived xenograft implanted with patient-derived pancreatic cancer cells assessed as effect on normal anatomical structures of heart at 30 mg/kg, ip QD for 18 days relative to control; assay type: organism-based; settings: in vivo, 432 h, time 18 day
[29] = Toxicity in BALB/c mouse model of patient-derived xenograft implanted with patient-derived pancreatic cancer cells assessed as effect on normal anatomical structures of lung at 30 mg/kg, ip QD for 18 days relative to control; assay type: organism-based; settings: in vivo, 432 h, time 18 day
BXPC-3 [30] = experiment: Antitumor activity against human BXPC-3 cells xenografted in nude BALB/c mouse assessed as inhibition of tumor growth at 30 mg/kg, ip QD for 18 days relative to control; assay type: functional; settings: BXPC-3, ip, 432 h, time 18 day, read-out: TGI
[31] = Antitumor activity against patient-derived pancreatic cancer cells xenografted in BALB/c mouse model of patient-derived xenograft assessed as inhibition of tumor growth at 30 mg/kg, ip QD for 18 days relative to control; assay type: functional; settings: Homo sapiens, Pancreatic cancer cell, 432 h, time 18 day, read-out: TGI
[32] = Toxicity in BALB/c mouse model of patient-derived xenograft implanted with patient-derived pancreatic cancer cells assessed as effect on normal anatomical structures of kidney at 30 mg/kg, ip QD for 18 days relative to control; assay type: organism-based; settings: in vivo, 432 h, time 18 day
[33] = Toxicity in nude BALB/c mouse xenografted with human BXPC-3 cells assessed as effect on body weight level at 30 mg/kg, ip QD for 18 days relative to control; assay type: organism-based; settings: in vivo, 432 h, time 18 day
[34] = Toxicity in BALB/c mouse model of patient-derived xenograft implanted with patient-derived pancreatic cancer cells assessed as effect on normal anatomical structures of spleen at 30 mg/kg, ip QD for 18 days relative to control; assay type: organism-based; settings: in vivo, 432 h, time 18 day
[35] = Toxicity in BALB/c mouse model of patient-derived xenograft implanted with patient-derived pancreatic cancer cells assessed as effect on normal anatomical structures of liver at 30 mg/kg, ip QD for 18 days relative to control; assay type: organism-based; settings: in vivo, 432 h, time 18 day

CN[C@@H]1C[C@H]2O[C@@](C)([C@@H]1OC)n1c3ccccc3c3c4c(c5c6ccccc6n2c5c31)C(=O)NC4=O (stereo in doubt; 15)
inhibition [1]: inactive
Activity (BXPC-3 [2]): Active
inhibition [3]: Active
Activity (BXPC-3 [4]): Active
inhibition [5]: inactive
inhibition [6]: Active
Activity (BXPC-3 [7]): Dose-dependent effect
Activity (BXPC-3 [8]): Active
inhibition [9]: inactive
inhibition [10]: inactive
inhibition [11]: inactive
Activity (BXPC-3 [12]): Active
Activity (BXPC-3 [13]): Dose-dependent effect
Activity (BXPC-3 [14]): Active
Activity (BXPC-3 [15]): Dose-dependent effect
Activity (BXPC-3 [16]): Active
Activity (BXPC-3 [17]): Active
inhibition [18]: Active
Activity (BXPC-3 [19]): Active
inhibition [20]: Active
inhibition [21]: Active
inhibition [22]: inactive
inhibition [23]: inactive
Activity (BXPC-3 [24]): Dose-dependent effect
inhibition [25]: Active
Activity (BXPC-3 [26]): Dose-dependent effect

CC(=O)c1cc2c(o1)C(=O)c1ccccc1C2=O [NAPABUCASIN]
Activity [27]: Non-Toxic
Activity [28]: Non-Toxic
Activity [29]: Non-Toxic
inhibition in vivo at 30 mg/kg (BXPC-3 [30]): 34.2%
inhibition in vivo at 30 mg/kg [31]: 41.8%
Activity [32]: Non-Toxic
Activity [33]: Non-Toxic
Activity [34]: Non-Toxic
Activity [35]: Non-Toxic
